1 compound from US7576103B2, “Tetralin and indane derivatives and uses thereof” (Roche Palo Alto LLC, priority 2004, dated 2009) can be followed below.

Assay [1] has as its target T1, recombinant human 5-HT2A receptor (Homo sapiens, UniProt P28223).
T1 construct: expressed in transfected cells; cell membranes
Put plainly: Radioligand binding, [3H]Ketanserin competition, 5-HT2A. Conditions: membranes of CHO-K1 cells, pH 7.4, 32° C., read-out: pKi for the 5-HT2A receptor (converted). The procedure: (§1) The binding activity of compounds of this invention in vitro was determined as follows. Duplicate determinations of 5-HT6 ligand affinity were made by competing for binding of [^3H]LSD in cell membranes derived from HEK293 cells stably expressing recombinant human 5-HT6 receptor. Duplicate determinations of 5-HT2A ligand affinity were made by competing for binding of [^3H]Ketanserin (3-(2-(4-(4-fluorobenzoyl)piperidinol)ethyl)-2,4(1H,3H)-quinazolinedione) in cell membranes derived from CHO-K1 cells stably expressing recombinant human 5-HT2A receptor. Membranes were prepared from HEK 293 cell lines by the method described by Monsma et al., Molecular Pharmacology, Vol. 43 pp. 320-327 (1993), and from CHO-K1 cell lines as described by Bonhaus et al., Br J Pharmacol. June 115(4):622-8 (1995).
(§2) For estimation of affinity at the 5-HT6 receptor, all determinations were made in assay buffer containing 50 mM Tris-HCl, 10 mM MgSO4, 0.5 mM EDTA, 1 mM ascorbic acid, pH 7.4 at 37° C., in a 250 microliter reaction volume. […]
(§3) Assay tubes containing [^3H] […] LSD or [^3H]Ketanserin were determined as radioactive counts per minute using Packard TopCount.
(§4) Displacement of [^3H]LSD or [^3H]Ketanserin from the binding sites was quantified by fitting concentration-binding data to a 4-parameter logistic equation: […]

The target of assay [2] is T2, recombinant human 5-HT6 receptor (Homo sapiens, UniProt P50406).
T2 construct: expressed in transfected cells; cell membranes
Put plainly: Radioligand binding, [3H]LSD competition, 5-HT6. Conditions: membranes of HEK293 cells, pH 7.4, 37° C., read-out: pKi for the 5-HT6 receptor (converted). The procedure: as §1, §2, §3, §4

T1 sequence (P28223 whole entry): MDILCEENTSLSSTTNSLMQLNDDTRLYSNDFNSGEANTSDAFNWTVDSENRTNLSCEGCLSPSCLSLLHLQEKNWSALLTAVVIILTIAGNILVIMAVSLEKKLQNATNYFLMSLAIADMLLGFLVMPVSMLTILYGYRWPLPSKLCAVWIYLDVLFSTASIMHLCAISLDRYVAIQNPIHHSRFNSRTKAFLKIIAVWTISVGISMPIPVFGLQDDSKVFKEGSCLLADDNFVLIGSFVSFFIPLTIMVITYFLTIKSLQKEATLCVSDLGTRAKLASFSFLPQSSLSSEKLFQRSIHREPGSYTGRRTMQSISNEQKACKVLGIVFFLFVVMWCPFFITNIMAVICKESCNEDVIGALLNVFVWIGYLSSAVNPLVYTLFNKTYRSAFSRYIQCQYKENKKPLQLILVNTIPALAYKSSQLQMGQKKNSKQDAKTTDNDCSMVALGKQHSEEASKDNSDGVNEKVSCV
T2 sequence (P50406 whole entry): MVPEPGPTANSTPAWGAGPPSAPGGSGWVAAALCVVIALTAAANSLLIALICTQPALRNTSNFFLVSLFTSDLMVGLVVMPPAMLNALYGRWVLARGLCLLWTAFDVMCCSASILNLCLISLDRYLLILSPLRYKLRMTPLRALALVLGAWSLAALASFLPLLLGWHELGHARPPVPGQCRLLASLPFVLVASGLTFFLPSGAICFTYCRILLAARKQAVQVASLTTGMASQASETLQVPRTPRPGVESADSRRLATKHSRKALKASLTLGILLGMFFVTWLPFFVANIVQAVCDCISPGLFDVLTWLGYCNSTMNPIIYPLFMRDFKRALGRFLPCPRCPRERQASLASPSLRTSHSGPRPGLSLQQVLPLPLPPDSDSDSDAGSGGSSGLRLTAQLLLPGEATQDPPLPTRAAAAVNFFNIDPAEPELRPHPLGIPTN

As for `CNCCOC1CCCc2cc(S(=O)(=O)c3ccccc3)ccc21` (centres unmarked) [Compound 5, [2-(6-Benzenesulfonyl-1,2,3,4-tetrahydro-naphthalen-1-yloxy)-ethyl]-methyl-amine], the values for the Ki in assay [1] and in assay [2] were 61.7 nM and 1.82 nM, respectively.
